Reference: patent US20250248979A1, “NOVEL GPX4 INHIBITORS AND USES THEREOF” (THE TRUSTEES OF COLUMBIA UNIVERSITY IN THE CITY OF NEW YORK, priority 2022, published 2025)

target: T1, GPX4 (Homo sapiens, UniProt P36969); assay: GPX4 activity assay in cell lysates (NADPH-coupled); assay type: biochemical; parameters: endogenous in cells; host or cells: A-673 cell lysate; settings: not given
T1 sequence (P36969 1-170 isoform P36969-2): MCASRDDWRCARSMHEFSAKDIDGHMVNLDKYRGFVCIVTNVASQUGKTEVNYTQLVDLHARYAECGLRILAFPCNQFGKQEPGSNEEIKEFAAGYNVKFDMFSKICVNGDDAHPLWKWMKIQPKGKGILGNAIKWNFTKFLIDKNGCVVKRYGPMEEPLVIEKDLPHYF
Description: Determination of GPX4 activity in cell lysates was performed as previously described by Roveri et al. 1994 with minor modifications. Briefly, the assay measures the consumption of NADPH, which has a characteristic absorbance at 340 nm, over time as a proxy for GPX4 activity. The rationale for this is that as GPX4 reduces phospholipid hydroperoxides, it oxidizes glutathione, which is then regenerated by glutathione reductase at the expense of NADPH. NADPH is added to the assay in excess such that the reduction of oxidized glutathione is not the rate-limiting reaction in the assay. Thus, the resulting reduction in NADPH absorbance over time reflects GPX4 activity.
The GPX4-specific substrate phosphatidylcholine hydroperoxide (PCOOH) was prepared by enzymatic hydroperoxidation. Specifically, 0.3 mM phosphatidylcholines (Sigma-Aldrich) were incubated with 0.7 mg soybean lipoxidase type IV (Sigma-Aldrich) in 22 mL of 0.2 M Tris-HCl pH 8.8 with 3 mM sodium deoxycholate at room temperature under continuous stirring for 30 minutes. A Sep-Pak C18 cartridge (Waters-Millipore) was pre-washed with methanol and equilibrated with water, then the substrate mixture was loaded. The column was washed with 10 volumes of water and PCOOH was eluted with 2 mL of methanol.
To prepare the cell lysate containing native GPX4, A-673 cells were cultured with 20 nM sodium selenite to confluency over two days then harvested and washed with cold PBS. Cells were then resuspended at 10 million cells per 1 mL LCW lysis buffer (0.5% peroxide-free Triton X-100, 0.5% sodium deoxycholate salt, 150 mM NaCl, 20 mM Tris-HCl pH 7.5, 10 mM EDTA, 30 mM sodium pyrophosphate, and complete protease inhibitor cocktail), vortexed for 30 seconds, and incubated on ice for 15 minutes. After lysis, the lysates were centrifuged at 14,000×g and 4° C. for 15 minutes. The supernatants were transferred to new pre-chilled tube and the debris pellet was discarded. The protein concentration in the lysate was determined for normalization using the BCA Protein Assay Kit (Pierce).
To measure GPX4 activity, 50 μL of cell lysate was combined with 200 μL activity assay buffer (0.1% Triton X-100, 100 mM Tris-HCl pH 8.0, 10 mM sodium azide, 5 mM EDTA, 0.6 IU/mL glutathione reductase, 0.5 mM NADPH and 3 mM GSH) and compounds of interest in a clear 96-well plate and incubated at 37° C. for 45 minutes. Compounds were dissolved in DMSO. All conditions were tested in triplicate. PCOOH substrate was added to the mixture to initiate GPX4 activity just before reading the plate. The absorbance of NADPH at 340 nm was monitored kinetically over time for 25 minutes. Buffer-only controls and controls without substrate containing only the methanol vehicle were performed to assess background and baseline signal. GPX4 activity was calculated as previously reported by Stolwijk et al. 2020 and results were analyzed in GraphPad Prism 9.

SMILES | GPX4 inhibitory activity, result in words
C=CC(=O)OCC(C)(C)NC(=O)c1nn(C)c2cc(Br)ccc12 [QW-417] | inactive during GPX4 inhibition
Cn1nc(C(=O)NC(C)(C)COC(=O)CCl)c2ccc(-c3ccc(C#N)cc3)cc21 [QW-445] | inactive during GPX4 inhibition
COc1cccc(OC)c1-c1ccc2c(C(=O)NC(C)(C)COC(=O)CCl)nn(C)c2c1 [QW-487] | completely loss of the inhibitory effect
Cn1nc(C(=O)NC(C)(C)COC(=O)CCl)c2ccc(-c3ccc(C(F)(F)F)cc3)cc21 [QW-502] | inactive during GPX4 inhibition

same assay, conditions: 5 μM

SMILES | GPX4% inhibition at 5 μM [%]
Cn1nc(C(=O)NC(C)(C)COC(=O)CCl)c2ccc(-c3ccc(F)nc3)cc21 [QW-444] | 34.1 ± 0.3
Cn1nc(C(=O)NC(C)(C)COC(=O)CCl)c2ccc(-c3ccc(C#N)cc3)cc21 [QW-445] | 21.2 ± 5.7
Cn1nc(C(=O)NC(C)(C)COC(=O)CCl)c2ccc(-c3ccoc3)cc21 [QW-451] | 37.7 ± 4.1
Cn1nc(C(=O)NC(C)(C)COC(=O)CCl)c2ccc(-c3cccc([N+](=O)[O-])c3)cc21 [QW-452] | 55.0 ± 5.8
Cn1nc(C(=O)NC(C)(C)COC(=O)CCl)c2ccc(-c3cc4ccccc4[nH]3)cc21 [QW-453] | 67.0 ± 4.7
Cn1nc(C(=O)NC(C)(C)COC(=O)CCl)c2ccc(-c3ccc4c(c3)OCCO4)cc21 [QW-457] | 54.4 ± 7.2
Cn1nc(C(=O)NC(C)(C)COC(=O)CCl)c2ccc(-c3cccc4[nH]ccc34)cc21 [QW-467] | −10.3 ± 4.3
Cn1nc(C(=O)NC(C)(C)COC(=O)CCl)c2ccc(-c3ccc(OC(F)(F)F)cc3)cc21 [QW-469] | 64.3 ± 0.7
COc1cc(-c2ccc3c(C(=O)NC(C)(C)COC(=O)CCl)nn(C)c3c2)cc(OC)c1OC [QW-479] | 59.6 ± 6.8
COc1ccccc1-c1ccc2c(C(=O)NC(C)(C)COC(=O)CCl)nn(C)c2c1 [QW-483] | 35.8 ± 7.4
COc1cccc(OC)c1-c1ccc2c(C(=O)NC(C)(C)COC(=O)CCl)nn(C)c2c1 [QW-487] | 3.3 ± 3.0
Cn1nc(C(=O)NC(C)(C)COC(=O)CCl)c2ccc(-c3ccccc3Cl)cc21 [QW-492] | 45.7 ± 4.9
Cn1nc(C(=O)NC(C)(C)COC(=O)CCl)c2ccc(-c3cccc(F)c3)cc21 [QW-493] | 77.1 ± 10.4
Cn1nc(C(=O)NC(C)(C)COC(=O)CCl)c2ccc(-c3ccc(Cl)cc3)cc21 [QW-494] | 76.8 ± 2.3
CC(C)Oc1ccc(Cl)cc1-c1ccc2c(C(=O)NC(C)(C)COC(=O)CCl)nn(C)c2c1 [QW-495] | 22.9 ± 7.5
Cn1nc(C(=O)NC(C)(C)COC(=O)CCl)c2ccc(-c3ccc(F)c(F)c3)cc21 [QW-500] | 57.5 ± 5.3
Cn1nc(C(=O)NC(C)(C)COC(=O)CCl)c2ccc(-c3ccc(C(F)(F)F)cc3)cc21 [QW-502] | −10.2 ± 6.5
Cn1nc(C(=O)NC(C)(C)COC(=O)CCl)c2ccc(-c3ccc(OCc4ccccc4)cc3)cc21 [QW-503] | 65.3 ± 3.2
CC(C)Oc1ccccc1-c1ccc2c(C(=O)NC(C)(C)COC(=O)CCl)nn(C)c2c1 [QW-509] | 28.3 ± 3.0
Cn1nc(C(=O)NC(C)(C)COC(=O)CCl)c2ccc(-c3cccc(OC(=O)CCl)c3)cc21 [QW-510] | 67.2 ± 1.9
Cn1nc(C(=O)NC(C)(C)COC(=O)CCl)c2ccc(-c3ccc(COC(=O)CCl)cc3)cc21 [QW-513] | 50.1 ± 2.4
Cn1nc(C(=O)NC(C)(C)COC(=O)CCl)c2ccc(C3=CCc4ccccc43)cc21 [QW-514] | 44.8 ± 6.6

same assay, conditions: 5 μM; generation 2

SMILES | GPX4% inhibition at 5 μM [%]
Cn1nc(C(=O)NC(C)(C)COC(=O)CCl)c2ccc([N+](=O)[O-])cc21 [QW-380] | 62.1 ± 2.4
Cn1nc(C(=O)NC(C)(C)CC(O)S(=O)(=O)[O-])c2ccccc21.[Na+] (stereo not shown) [QW-394] | 4.5 ± 17.8
COc1cccc2c(C(=O)NC(C)(C)COC(=O)CCl)nn(C)c12 [QW-398] | 20.3 ± 9.5
CC(C)(COC(=O)CCl)NC(=O)c1nc2cc(Br)ccc2[nH]1 [QW-407] | −14.3 ± 5.2
CC=CC(=O)OCC(C)(C)NC(=O)c1nn(C)c2ccccc12 [QW-411] | −6.0 ± 3.1
COC(=O)C=CC(=O)OCC(C)(C)NC(=O)c1nn(C)c2ccccc12 [QW-412] | −5.7 ± 8.0
CC=CC(=O)OCC(C)(C)NC(=O)c1nn(C)c2cc(Br)ccc12 [QW-414] | −9.1 ± 13.4
COC(=O)C=CC(=O)OCC(C)(C)NC(=O)c1nn(C)c2cc(Br)ccc12 [QW-415] | −9.4 ± 8.1
Cn1nc(C(=O)NC(C)(C)COC(=O)CBr)c2ccc(Br)cc21 [QW-416] | 25.3 ± 13.4
C=CC(=O)OCC(C)(C)NC(=O)c1nn(C)c2cc(Br)ccc12 [QW-417] | −5.2 ± 10.0
Cn1nc(C(=O)NC(C)(C)COC(=O)C#C[Si](C)(C)C)c2ccc(Br)cc21 [QW-418] | −5.6 ± 5.1
C#CC(=O)OCC(C)(C)NC(=O)c1nn(C)c2cc(Br)ccc12 [QW-420] | −10.9 ± 8.0
Cn1nc(C(=O)NC(C)(C)COC(=O)CCl)c2cccnc21 [QW-426] | −11.3 ± 4.7
Cc1cc(C(=O)OCC(C)(C)NC(=O)c2nn(C)c3cc(Br)ccc23)no1 [QW-429] | −2.3 ± 2.3
Cn1nc(C(=O)NCCCCCC=O)c2ccc(Br)cc21 [QW-497] | −15.1 ± 8.4
Cn1nc(C(=O)NCCCCCC(O)S(=O)(=O)[O-])c2ccc(Br)cc21.[Na+] (stereo not shown) [QW-517] | −10.7 ± 7.8
Cn1nc(C(=O)NCCCCCCOC(=O)CCl)c2ccc(Br)cc21 [QW-520] | −9.8 ± 6.7
Cn1nc(C(=O)NCCCCCOC(=O)CCl)c2ccc(Br)cc21 [QW-521] | −19.3 ± 9.9
Cn1nc(C(=O)NCCCCC=O)c2ccc(Br)cc21 [QW-527] | −24.5 ± 0.5
Cn1nc(C(=O)NCCCCC(O)S(=O)(=O)[O-])c2ccc(Br)cc21.[Na+] (stereo not shown) [QW-534] | −36.6 ± 4.8

same assay, conditions: 20 μM; generation 2

SMILES | GPX4% inhibition at 20 (μM) [%]
Cn1nc(C(=O)N2CCN(C(=O)CCl)CC2)c2ccccc21 [QW-370] | 0.5 ± 5.4
Cc1onc(C(=O)N2CCN(C(=O)c3nn(C)c4ccccc34)CC2)c1[N+](=O)[O-] [QW-371] | 2.9 ± 2.2
Cn1nc(C(=O)NC(C)(C)COC(=O)C(F)Cl)c2ccccc21 (stereo not shown) [QW-374] | 1.6 ± 3.0
Cn1nc(C(=O)NC(C)(C)C=O)c2ccccc21 [QW-387] | 4.1 ± 4.7
Cn1nc(C(=O)NC(C)(C)CC=O)c2ccccc21 [QW-388] | 1.6 ± 1.9
Cn1nc(C(=O)NC(C)(C)C(O)S(=O)(=O)[O-])c2ccccc21.[Na+] (stereo not shown) [QW-389] | 32.2 ± 2.5
CC(C)(COC(=O)CCl)NC(=O)c1n[nH]c2ncccc12 [QW-390] | 4.0 ± 3.9
CC(C)(COC(=O)CCl)NC(=O)c1ncn2ccccc12 [QW-391] | 5.3 ± 8.5

same assay, conditions: 200 μM; generation 2

SMILES | GPX4% inhibition at 200 (μM) [%]
Cc1onc(C(=O)OCC(C)(C)NC(=O)c2nn(C)c3ccccc23)c1[N+](=O)[O-] [QW-363] | −15.4 ± 8.4
C=CC(=O)OCC(C)(C)NC(=O)c1nn(C)c2ccccc12 [QW-366] | −7.3 ± 0.5
Cn1nc(C(=O)NC(C)(C)COC(=O)C#C[Si](C)(C)C)c2ccccc21 [QW-367] | 7.0 ± 3.9

same assay, conditions: concentration not given

SMILES | GPX4 inhibition rate [%]
Cn1nc(C(=O)NC(C)(C)COC(=O)CCl)c2ccc(-c3cccc([N+](=O)[O-])c3)cc21 [QW-452] | 50
